Laboratory results reported in PubChem BioAssay AID1919013 (Molecular Pharmacology Branch, DTP, NCI, 2023).

System: LG0703-F498-PDC complex spheroid growth
Assay: Anticancer human tumor LG0703-F498-PDC patient-derived lung adenocarcinoma cell line growth inhibition [AhR]
Conditions: for IC50: curve of first compound; for viability, T/C: stronger effect = lower value
Excerpt: Multicellular complex tumor spheroid response to aryl hydrocarbon receptor antagonists in combination with a variety of drugs and investigational agents in selected tumor cell lines
The current study was undertaken to assess response to aryl hydrocarbon receptor antagonists in combination with standard-of-care drugs and investigational agents in solid tumor complex spheroid models. Complex spheroids include a stromal component modeled by human endothelial cells (HUVEC) and fibroblasts modeled by human mesenchymal stem cells (MSCs). The concentration ranges selected for each drug and investigational agent were based upon clinically achievable concentrations if the clinical Cmax of the agent was known.
Compounds. The drugs and investigational agents: BAY 2416964 (NSC825713), GNF351 (NSC835774), CH-223191 (NSC835775), CPI-455 (NSC825282), aza-TdCyd (NSC777586), decitabine (NSC127716), belinostat (NSC758774), entinostat (NSC756642), pevonedistat (NSC761192), tazemetostat (NSC777109), talazoparib (NSC765396), olaparib (NSC753686), selinexor (NSC780203), nedisertib (M3814, NSC802822), bortezomib (NSC756655), venetoclax (NSC766270), doxorubicin (NSC123127), elimusertib (BAY189344, NSC800525), ceralasertib (AZD6738, NSC777638), TAK-243 (NSC785004), alisertib (NSC759677), etoposide (NSC141540), topotecan (NSC609699), eribulin (NSC707389), gemcitabine (NSC613327), carboplatin (NSC241240), cisplatin (NSC119875), and SN-38 (NSC673596) were obtained from the National Cancer Institute (NCI) Developmental Therapeutics Program Chemical Repository (32). The FDA-approved anticancer drug set is available from the Developmental Therapeutics Program at https://dtp.cancer.gov/organization/dscb/obtaining/available plates.htm. […] The stock solutions were prepared in dimethyl sulfoxide (DMSO, Sigma-Aldrich, St. Louis, MO, cat. D2650), except for the platinum compounds which were prepared in saline (Quality Biological, Gaithersburg, MD, cat. 114-055-101), at 800-fold the tested concentration and stored at -70 degrees C prior to their use. All drugs and investigational agents were tested over a range starting from a high concentration at or near the clinical Cmax and decreasing in half-log increments. If the clinical Cmax for an agent had not been determined, the highest concentration tested was 10 microM (Table 1).
Cell Culture. All cells were maintained in an incubator at 37 degrees C and 5% CO2 with 95% humidity. The PDC lines were cultured according to standard operating procedures established by the NCI PDMR (https://pdmr.cancer.gov). Briefly, all PDCs were thawed and cultured in Matrigel-coated flasks prepared with a working solution of 1X Ham's F-12 nutrient mix, without supplementation (Invitrogen, Waltham, MA, cat. 11765054), 100 U/mL penicillin-streptomycin (Invitrogen, cat. 15140122), and 2.5% Matrigel (Corning Inc., Corning, NY, cat. 354248) for the first three passages. All PDCs were cultured in complete DMEM/F-12 media containing advanced DMEM/F-12 (Invitrogen, cat. 12634028), 4.9% defined fetal bovine serum, heat inactivated (HyClone Laboratories Inc., Logan, UT, cat. SH30070.03HI), 389 ng/mL hydrocortisone (Sigma-Aldrich, cat. H4001), 9.7 ng/mL human EGF recombinant protein (Invitrogen, cat. PHG0313), 23.4 microg/mL adenine (Sigma-Aldrich, cat. A2786), 97.3 U/mL penicillin-streptomycin (Invitrogen, cat. 15140122), 1.9 mM L-glutamine (Invitrogen, cat. 25030081), and 9.7 microM Y-27632 dihydrochloride (Tocris Bioscience, Bristol, United Kingdom, cat. 1254). The PDCs were cultured in complete DMEM/F12 media without 10 microM Y-27632 dihydrochloride for at least two passages prior to the screen. The established cell lines NCI-H1341 and […] were cultured in DMEM/F-12, HEPES (Invitrogen, cat. 11330032), 5% defined fetal bovine serum (HyClone Laboratories Inc., cat. SH30070.03), ITS premix universal culture supplement [insulin (5 microg/mL), transferrin (5 microg/mL), and selenious acid (5 ng/mL)] […]

[1] = second compound 0.1 µM, first compound 0.0316 µM
[2] = second compound 0.1 µM, first compound 0.1 µM
[3] = second compound 0.1 µM, first compound 0.316 µM
[4] = second compound 0.1 µM, first compound 1 µM
[5] = second compound 0.1 µM, first compound 3.16 µM
[6] = second compound 0.1 µM, first compound 10 µM
[7] = second compound 0.316 µM, first compound 0.0316 µM
[8] = second compound 0.316 µM, first compound 0.1 µM
[9] = second compound 0.316 µM, first compound 0.316 µM
[10] = second compound 0.316 µM, first compound 1 µM
[11] = second compound 0.316 µM, first compound 3.16 µM
[12] = second compound 0.316 µM, first compound 10 µM
[13] = second compound 1 µM, first compound 0.0316 µM
[14] = second compound 1 µM, first compound 0.1 µM
[15] = second compound 1 µM, first compound 0.316 µM
[16] = second compound 1 µM, first compound 1 µM
[17] = second compound 1 µM, first compound 3.16 µM
[18] = second compound 1 µM, first compound 10 µM
[19] = second compound 3.16 µM, first compound 0.0316 µM
[20] = second compound 3.16 µM, first compound 0.1 µM
[21] = second compound 3.16 µM, first compound 0.316 µM
[22] = second compound 3.16 µM, first compound 1 µM
[23] = second compound 3.16 µM, first compound 3.16 µM
[24] = second compound 3.16 µM, first compound 10 µM
[25] = second compound 10 µM, first compound 0.0316 µM
[26] = second compound 10 µM, first compound 0.1 µM
[27] = second compound 10 µM, first compound 0.316 µM
[28] = second compound 10 µM, first compound 1 µM
[29] = second compound 10 µM, first compound 3.16 µM
[30] = second compound 10 µM, first compound 10 µM
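Note: luminescence taken as a proxy for viable cell amount.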
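Throughout, for viability, T/C: percent of DMSO vehicle control where 100% means growth equal to vehicle.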

Row | Structure (SMILES) | IC50 (second compound 0.1 µM) [µM] | IC50 (second compound 0.316 µM) [µM] | IC50 (second compound 1 µM) [µM] | IC50 (second compound 3.16 µM) [µM] | IC50 (second compound 10 µM) [µM] | viability, T/C [1] [%] | viability, T/C [2] [%] | viability, T/C [3] [%] | viability, T/C [4] [%] | viability, T/C [5] [%] | viability, T/C [6] [%] | viability, T/C [7] [%] | viability, T/C [8] [%] | viability, T/C [9] [%] | viability, T/C [10] [%] | viability, T/C [11] [%] | viability, T/C [12] [%] | viability, T/C [13] [%] | viability, T/C [14] [%] | viability, T/C [15] [%] | other results
1 | NS(=O)(=O)OCC1CC(n2ccc3c(NC4CCc5ccccc54)ncnc32)CC1O (stereo not given) + CC(CO)NC(=O)c1cc(-c2ccc(Cl)cc2)nn(-c2cnn(C)c2)c1=O | 3.6 | 1.47 | 0.882 | 0.617 | 0.638 | 94.1 | 99.9 | 81.9 | 71 | 51.7 | 38.3 | 96.4 | 88.9 | 78.9 | 51.7 | 45 | 36.2 | 89 | 76.7 | 65.4 | viability, T/C [16]: 48.6%; viability, T/C [17]: 36.8%; viability, T/C [18]: 38.5%; viability, T/C [19]: 78.4%; viability, T/C [20]: 73.5%; viability, T/C [21]: 60.8%; viability, T/C [22]: 42.5%; viability, T/C [23]: 34.3%; viability, T/C [24]: 34.2%; viability, T/C [25]: 78.5%; viability, T/C [26]: 72.6%; viability, T/C [27]: 60.5%; viability, T/C [28]: 43.4%; viability, T/C [29]: 34.1%; viability, T/C [30]: 31.9%
2 | COc1cc(C2c3cc4c(cc3C(OC3OC5COC(C)OC5C(O)C3O)C3COC(=O)C23)OCO4)cc(OC)c1O (stereo not given) + Cc1ccccc1N=Nc1ccc(NC(=O)c2ccnn2C)c(C)c1 | > 10 | > 10 | > 10 | > 10 | > 10 | 94.8 | 103 | 86.2 | 95.2 | 91.3 | 72.1 | 96.2 | 93.5 | 106 | 79.5 | 68.4 | 59.3 | 79.2 | 104 | 99.4 | viability, T/C [16]: 79.8%; viability, T/C [17]: 65.2%; viability, T/C [18]: 62.7%; viability, T/C [19]: 85.5%; viability, T/C [20]: 94%; viability, T/C [21]: 93.5%; viability, T/C [22]: 80.2%; viability, T/C [23]: 74.2%; viability, T/C [24]: 59.6%; viability, T/C [25]: 77%; viability, T/C [26]: 96.5%; viability, T/C [27]: 93.5%; viability, T/C [28]: 73.5%; viability, T/C [29]: 81.4%; viability, T/C [30]: 70.6%
